Assay [1] relates to IMQ-induced mouse model of lupus. Briefly: IMQ-induced mouse model of lupus, LA1 started 0, 2 or 4 weeks after disease induction. The class given is in vivo, wild type C57BL/6 mice. The protocol:
FIG. 12A illustrates levels of anti-dsDNA antibodies measured weekly in mice co-treated with IMQ and LA1 (30 mg/kg, BID) for 8 weeks. Each dot represents mean +/−SEM (n=4).
FIG. 12B illustrates levels of anti-dsDNA antibodies measured weekly in mice treated with IMQ for 8 weeks starting at week 0 and additionally treated with LA1 (30 mg/kg, BID) for 6 weeks, starting at week 2. Each dot represents mean +/−SEM (n=4).
FIG. 12C illustrates levels of anti-dsDNA antibodies measured weekly in mice treated with IMQ for 8 weeks starting at week 0 and additionally treated with LA1 (30 mg/kg, BID) for 4 weeks, starting at week 4. Each dot represents mean +/−SEM (n=4).
FIG. 12D illustrates levels of biomarker suPAR measured weekly in mice co-treated with IMQ and LA1 (30 mg/kg, BID) for 8 weeks. Each dot represents mean +/−SEM (n=4).
FIG. 12E illustrates levels of biomarker suPAR measured weekly in mice treated with IMQ for 8 weeks starting at week 0 and additionally treated with LA1 (30 mg/kg, BID) for 6 weeks, starting at week 2. Each dot represents mean +/−SEM (n=4).
FIG. 12F illustrates levels of biomarker suPAR measured weekly in mice treated with IMQ for 8 weeks starting at week 0 and additionally treated with LA1 (30 mg/kg, BID) for 4 weeks, starting at week 4. Each dot represents mean +/−SEM (n=4).
FIG. 12G illustrates an experimental timeline for the measurement of anti-dsDNA antibody and suPAR levels in mice treated with IMQ and LA1 for 8 weeks, the LA1 treatment initiated at various time points.
To assess therapeutic efficacy of LA1 in a TLR7-dependent SLE murine model, an IMQ-induced mouse model of lupus (Yokogawa et al., 2014) was used. To induce disease, wild type C57BL/ 6 mice (WT) were treated with IMQ cream (Aldara) over the course of 8 weeks. IMQ-induced mice were then treated with LA 1, the treatment initiated at 0, 2, and 4 weeks after disease induction, as shown in FIG. 12G. Anti-dsDNA antibody and suPAR levels were measured in the murine serum at various time points during treatment.

The subject of assay [2] is LPS-treated wild type C57BL/6 mice. Briefly: Serum IL-6 in LPS-treated mice, oral LA1 dose response. It is filed as in vivo. The settings on record: 4 hours. The protocol: FIG. 11 illustrates the concentration of biomarker IL-6 in wild type mice and wild type mice co-treated with various dose amounts of LPS and LA1 (0, 2, 10, 30, or 60 mg/kg). Each dot represents a unique sample. Bars show mean +/−SEM (n=4).
Administration of LPS to wild type C57BL/6 mice (WT) results in rapid elevation of pro-inflammatory mediators, such as IL-6, in murine sera. WT mice treated with LPS were used to study the dose-responsive efficacy of LA1 in reducing inflammatory cytokine levels in vivo. A single dose of LA 1 was orally administered to mice co-administered LPS. After 4 hours, sera was collected and used for ELISA.

The test system of assay [3] is TLR7 mediated pro-inflammatory biomarkers. Briefly: Secretion of pro-inflammatory biomarkers from myeloid cells stimulated with imiquimod (ELISA). It is filed as cell-based. The conditions noted are these: IMQ (20 ug/mL) and LA1 (20 uM) co-treatment, 4 hours. As to the method: FIG. 5A illustrates the levels of biomarker IL-1b secretion in myeloid cells after 4 hours of treatment with vehicle DMSO (UT), LA1 (20 uM), Imiquimod (IMQ) (20 ug/mL), or IMQ and LA1 co-treatment. Bars show mean with SD (N=3) (*P<0.05, **P<0.01, ***P<0.001, ***P<0.0001).
FIG. 5B illustrates the levels of biomarker suPAR secretion in myeloid cells after 4 hours of treatment with vehicle DMSO (UT), LA1 (20 uM), Imiquimod (IMQ) (20 ug/mL), or IMQ and LA1 co-treatment. Bars show mean with SD (N=3) (*P<0.05, **P<0.01, ***P<0.001, ***P<0.0001).
FIG. 5C illustrates the levels of biomarker IL-6 secretion in myeloid cells after 4 hours of treatment with vehicle DMSO (UT), LA1 (20 uM), Imiquimod (IMQ) (20 ug/mL), or IMQ and LA1 co-treatment. Bars show mean with SD (N=3) (*P<0.05, **P<0.01, ***P<0.001, ***P<0.0001).
FIG. 5D illustrates the levels of biomarker TNFalpha secretion in myeloid cells after 4 hours of treatment with vehicle DMSO (UT), LA1 (20 uM), Imiquimod (IMQ) (20 ug/mL), or IMQ and LA1 co-treatment.
FIG. 5E illustrates the levels of biomarker IFN-b secretion in myeloid cells after 4 hours of treatment with vehicle DMSO (UT), LA1 (20 uM), Imiquimod (IMQ) (20 ug/mL), or IMQ and LA1 co-treatment. Bars show mean with SD (N=3) (*P<0.05, **P<0.01, ***P<0.001, ****P<0.0001).
The concentration of TLR7 mediated pro-inflammatory biomarkers in untreated myeloid cells, myeloid cells treated with LA1, myeloid cells treated with IMQ, and myeloid cells co-treated with IMQ and LA1 was assessed by ELISA.

The mark [4] stands for this setting: LA1 30 mg/kg BID co-treated with IMQ for 8 weeks (start week 0).
Where [5] appears, read: LA1 30 mg/kg BID started four weeks after initial IMQ (after disease onset).
[6] abbreviates: LA1 30 mg/kg BID started two weeks after initial IMQ (after disease onset).

For `O=C(O)c1ccc(-c2ccc(/C=C3\SC(=S)N(Cc4ccccc4)C3=O)o2)cc1` [LA1, (Z)-4-(5-((3-benzyl-4-oxo-2-thioxothiazolidin-5-ylidene)methyl)furan-2-yl)benzoic acid], in assay [1] (setting [4]), the “anti-dsDNA antibody levels in serum” value was “significantly reduced” and the “suPAR levels in serum” value was “significantly reduced”. Further, in assay [1] (setting [5]), the “anti-dsDNA antibody levels in serum” value is reported as “significantly reduced” and the “suPAR levels in serum” value is listed as “significantly reduced”. In assay [1] (setting [6]), the “anti-dsDNA antibody levels in serum” value is given as “significantly reduced” and the “suPAR levels in serum” value was “significantly reduced”. Also, the “serum IL-6 levels versus non-LPS injected WT control” value in assay [2] (LA1 30 mg/kg oral) was “no difference”. Further, in assay [2] (LA1 60 mg/kg oral), the “serum IL-6 levels versus non-LPS injected WT control” value is listed as “no difference”. For the same compound, in assay [2] (single oral dose of LA1 (2, 10, 30, 60 mg/kg) co-administered with LPS, dose dependent), the “IL-6 levels in murine sera” value is on record as “significantly reduced”. For the same compound, in assay [3], the “TLR7-dependent increase in IL-1b level (ELISA)” value is on record as “significantly reduced”, the “TLR7-dependent increase in IL-6 level (ELISA)” value is recorded as “significantly reduced”, the “TLR7-dependent increase in TNF-a level (ELISA)” value is reported as “significantly reduced” and the “TLR7-dependent increase in uPAR level (ELISA)” value is “significantly reduced”.

These data come from patent US20260137662A1, “CD11B AGONISTS FOR TREATMENT OF AUTOIMMUNE DISEASE” (Rush University Medical Center, priority 2022, published 2026).
